Experimental data from patent US10752612B2, “PLK4 inhibitors” (LUDWIG INSTITUTE FOR CANCER RESEARCH LTD, priority 2015, dated 2020).
pIC50: −log10 of the molar value.

Biological target: T1, human Plk4 kinase domain (aa 2-275) (Homo sapiens, UniProt O00444)
T1 construct: purified 6×His-tagged human Plk4 kinase domain (aa 2-275); 6xHis; made in house; host or cells: E. coli
T1 sequence (O00444 2-275): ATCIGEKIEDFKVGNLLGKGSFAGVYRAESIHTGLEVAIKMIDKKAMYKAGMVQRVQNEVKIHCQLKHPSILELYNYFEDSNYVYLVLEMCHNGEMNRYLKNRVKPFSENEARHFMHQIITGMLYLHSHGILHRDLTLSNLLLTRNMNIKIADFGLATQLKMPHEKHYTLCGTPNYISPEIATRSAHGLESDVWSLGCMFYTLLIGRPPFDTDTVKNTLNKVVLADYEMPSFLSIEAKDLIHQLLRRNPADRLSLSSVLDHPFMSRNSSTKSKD
Assay: Plk4 kinase assay (ADP-Glo)
Assay type: biochemical
Conditions: Table 1
Summary of the method: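 Enzyme at 2.5-10 nM final, pH 8.0, reacted 4-16 hours at 25° C; ADP generation read by ADP-Glo luminescence. Ki derived from IC50 by Cheng-Prusoff or, for tight binders, Copeland formalism.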

Row | Structure (SMILES) | pIC50
1 | COc1c(Nc2cc(C)[nH]n2)nc(Sc2ccc(NC(=O)C3CC3)cc2)nc1N1CCN(C)CC1 | > 6.00
2 | Cc1cc(Nc2nc(Sc3ccc(NC(=O)C4CC4)cc3)nc(N3CCOCC3)c2C)n[nH]1 | > 6.00
3 | CCOc1c(Nc2cc(C)[nH]n2)nc(Sc2ccc(NC(=O)C3CC3)cc2)nc1N1CCN(CCOC)CC1 | 6.00 to 7.00
4 | CCOc1c(Nc2cc(C)[nH]n2)nc(Sc2ccc(NC(=O)C3CC3)cc2)nc1N(C)CCOC | 6.00 to 7.00
5 | COc1c(Nc2cc(C)[nH]n2)nc(Sc2ccc(NC(=O)C3CC3)cc2)nc1N1CCN(C(=O)CN(C)C)CC1 | > 6.00
6 | COc1c(Nc2cc(C)[nH]n2)nc(Sc2ccc(NC(=O)C3CC3)cc2)nc1N1CCN(C(=O)CCN(C)C)CC1 | > 6.00
7 | COCC(=O)N1CCN(c2nc(Sc3ccc(NC(=O)C4CC4)cc3)nc(Nc3cc(C)[nH]n3)c2OC)CC1 | > 6.00
8 | CNCCN1CCN(c2nc(Sc3ccc(NC(=O)C4CC4)cc3)nc(Nc3cc(C)[nH]n3)c2OC)CC1 | > 6.00
9 | CCOc1c(Nc2cc(C)[nH]n2)nc(Sc2ccc(NC(C)=O)cc2)nc1N1CCN(CCN(C)C)CC1 | 6.00 to 7.00
10 | CCOc1c(Nc2cc(C)[nH]n2)nc(Sc2ccc(NC(=O)C3CCCC3)cc2)nc1N1CCNCC1 | 6.00 to 7.00
11 | CCOc1c(Nc2cc(C)[nH]n2)nc(Sc2ccc(NC(=O)C3CCCC3)cc2)nc1N1CCN(C(C)=O)CC1 | 6.00 to 7.00
12 | CCOc1c(Nc2cc(C)[nH]n2)nc(Sc2ccc(NC(=O)C3CCCC3)cc2)nc1N1CCN(CCOC)CC1 | 6.00 to 7.00
13 | CCOc1c(Nc2cc(C)[nH]n2)nc(Sc2ccc(NC(=O)C3CCCC3)cc2)nc1N1CCN(CCN(C)C)CC1 | 6.00 to 7.00
14 | CCOc1c(Nc2cc(C)[nH]n2)nc(Sc2ccc(NC(=O)C3CC3)cc2)nc1N1CCN(C(=O)COC)CC1 | 6.00 to 7.00

Second part, the compound after the results:

Row | pIC50 | Structure (SMILES)
15 | > 6.00 | COc1c(C)nc(Sc2ccc(NC(=O)C3CC3)cc2)nc1Nc1cc(C)[nH]n1
16 | > 6.00 | Cc1cc(Nc2nc(Sc3ccc(NC(=O)C4CC4)cc3)nc3c2C(C)CC3)n[nH]1 (centres unmarked)
17 | > 6.00 | COc1c(Nc2cc(C)[nH]n2)nc(Sc2ccc(NC(=O)C3CC3)cc2)nc1N1CCN(C2CCN(C)CC2)CC1
18 | > 6.00 | COCCC(=O)N1CCN(c2nc(Sc3ccc(NC(=O)C4CC4)cc3)nc(Nc3cc(C)[nH]n3)c2OC)CC1
19 | > 6.00 | COc1c(Nc2cc(C)[nH]n2)nc(Sc2ccc(NC(=O)C3CC3)cc2)nc1N1CCN(CC2CC2)CC1
20 | 6.00 to 7.00 | COc1c(Nc2cc(C)[nH]n2)nc(Sc2ccc(NC(=O)C3CC3)cc2)nc1N1CCN(c2ccccc2)CC1
21 | 6.00 to 7.00 | CCOc1c(Nc2cc(C)[nH]n2)nc(Sc2ccc(NC(C)=O)cc2)nc1N1CCCCC1
22 | 6.00 to 7.00 | CCOc1c(Nc2cc(C)[nH]n2)nc(Sc2ccc(NC(C)=O)cc2)nc1N1CCNCC1
23 | 6.00 to 7.00 | CCOc1c(Nc2cc(C)[nH]n2)nc(Sc2ccc(NC(C)=O)cc2)nc1N1CCOCC1
24 | 6.00 to 7.00 | CCOc1c(Nc2cc(C)[nH]n2)nc(Sc2ccc(NC(C)=O)cc2)nc1N(CC)CC
25 | 6.00 to 7.00 | CCOc1c(Nc2cc(C)[nH]n2)nc(Sc2ccc(NC(C)=O)cc2)nc1N(C)CC
26 | 6.00 to 7.00 | CCOc1c(Nc2cc(C)[nH]n2)nc(Sc2ccc(NC(C)=O)cc2)nc1N1CCN(C(C)=O)CC1
27 | 6.00 to 7.00 | CCOc1c(Nc2cc(C)[nH]n2)nc(Sc2ccc(NC(C)=O)cc2)nc1N1CCN(CCOC)CC1
28 | 6.00 to 7.00 | CCOc1c(Nc2cc(C)[nH]n2)nc(Sc2ccc(NC(=O)C3CCCC3)cc2)nc1N1CCCCC1
29 | 6.00 to 7.00 | CCOc1c(Nc2cc(C)[nH]n2)nc(Sc2ccc(NC(=O)C3CCCC3)cc2)nc1N1CCOCC1
30 | < 6.00 | CCOc1c(Nc2cc(C)[nH]n2)nc(Sc2ccc(NC(=O)C3CCCC3)cc2)nc1N(CC)CC
31 | 6.00 to 7.00 | CCOc1c(Nc2cc(C)[nH]n2)nc(Sc2ccc(NC(=O)C3CCCC3)cc2)nc1N(C)CC
32 | 6.00 to 7.00 | COc1c(Nc2cc(C)[nH]n2)nc(Sc2ccc(NC(=O)C3CC3)cc2)nc1NC1CCNCC1
33 | > 6.00 | CCC1CCc2nc(Sc3ccc(NC(=O)C4CC4)cc3)nc(Nc3cc(C)[nH]n3)c21 (centres unmarked)
34 | > 6.00 | Cc1cc(Nc2nc(Sc3ccc(NC(=O)C4CCC4)cc3)nc(N3CCN(C)CC3)c2C)n[nH]1
35 | > 6.00 | CC(=O)Nc1ccc(Sc2nc(Nc3cc(C)[nH]n3)c(C)c(N3CCN(C)CC3)n2)cc1
